Values after ≈ are worked out from the molar mass of the structure shown.

What is called solubility is how much of the substance goes into solution per volume.

A short description of this data set: physchem. The text has this: The DES systems contained propylene glycol, a specific polymer solubilizer, and one or more (NA)DES constituents.

Turning to `NC(=O)N1c2ccccc2C=Cc2ccccc21` [Carbamazepine], the solubility is 17 µg/mL (≈ 72 µM) (20 °C, pH 7, water) and over 100000 µg/mL (organic solvent or mixture, Concentration solubilized API (mg/mL)). The compound `COc1ccccc1OCCNCC(O)COc1cccc2[nH]c3ccccc3c12` (centres unmarked) [Carvedilol] returned a solubility (20 °C, pH 7, water) of 0.6 µg/mL (≈ 1.48 µM). Under “20 °C, pH 7, water”, `O=C(O)c1ccccc1Nc1cccc(C(F)(F)F)c1` [Flufenamic Acid] gave a solubility of 9.1 µg/mL (≈ 32.4 µM). Turning to `CC(C)Cc1ccc(C(C)C(=O)O)cc1` (centres unmarked) [Ibuprofen], the “factor by which the concentration solubilized in DES exceeds the solubility of the drug in water” value is “at least 100”. The compound also registered a solubility (20 °C, pH 7, water) of 21 µg/mL (≈ 102 µM). For the compound `CCC(C)n1ncn(-c2ccc(N3CCN(c4ccc(OCC5COC(Cn6cncn6)(c6ccc(Cl)cc6Cl)O5)cc4)CC3)cc2)c1=O` (centres unmarked) [Itraconazole], the “Concentration solubilized API (mg/mL)” value is given as “up to 200 mg/mL” and the “factor by which the concentration solubilized in DES exceeds the solubility of the drug in water” value is given as ≤ 10.000.000. Also, under “20 °C, pH 7, water”, the solubility was found to be 0.004 µg/mL (≈ 0.00567 µM). Moreover, the solubility (organic solvent or mixture, solubility of itraconazole) was under 25000 µg/mL. `CC(=O)N1CCN(c2ccc(OCC3COC(Cn4ccnc4)(c4ccc(Cl)cc4Cl)O3)cc2)CC1` (centres unmarked) [Ketoconazole]: under “20 °C, pH 7, water”, the concentration in solution (solubility) was 0.09 µg/mL (≈ 0.169 µM).

Values taken from patent US20210379184A1, “Deep Eutectic Solvent Platform for Oral Pharmaceutical Formulations” (SeraNovo B.V., priority 2018, published 2021).
